Experimental findings from patent US12391670B2, “Functionalized aminotriazines” (LEADXPRO AG, priority 2018, dated 2025) are described below.

Read-outs that look alike come from different tables or passages of the source. Bounds are passed on as bounds.

Experiment [1] addresses A2B receptors endogenously expressed in HEK293 cells (Homo sapiens (Human), UniProt P29275). In words: cAMP assay (a), HEK293 cells with A2B receptors endogenously expressed. Type of experiment: cell-based. Particulars: stimulated with 5 μM NECA. The method, then: (§1) Two assays have been employed, one using HEK293 with A2B receptors endogenously expressed (named cAMP assay (a) in the following) and a second one using HEK293 cells impressing recombinant human A2B receptors (named cAMP assay (b) in the following)
Real-time cAMP-assays in live cells were performed in HEK293 cells stably expressing the EPAC-sensor (I. Vedel, et al., 2015, J. Biomol. Screen. 20, 849-857).
In order to test for cAMP inhibition by preferred compounds of formula I and antagonists, respectively, from this invention, endogenous A2A and A2B expression in above cell lines was exploited. To run the assay, cells were incubated in 80 μl assay buffer for 15 minutes at room temperature. The assay buffer was composed of Hanks Balanced Salt Solution (Gibco) with 20 mM HEPES, pH 7.4 and […] adenosine-deaminase. All cAMP assays were run at room temperature using a PHERAstar FSX plate reader. The FRET donor (mCerulean) was excited at 430 nm. Fluorescence emission was measured at 480 nm and 530 nm for 65 minutes (cycle time 1.45 min). Prior to stimulation fluorescence was measured for 10 min (baseline). Subsequently cells were stimulated with 5 μM NECA (5′-(N-Ethylcarboxamido)adenosine; Tocris, Cat.-No:35920-39-9). Sharply 10.15 min after stimulation the compounds were added at increasing concentrations (between 0 and 200 μM) and fluorescence was recorded for 40 min. Each compound concentration was measured in duplicates.

Experiment [2] concerns the target T1, human A2B receptor (Homo sapiens (Human), UniProt P29275). In words: Radioligand binding competition assay, [3H]-DPCPX, membranes from HEK293 cells transfected with human A2B receptor. The protocol:
(§2) For all four adenosine receptors (A1, A2A, A2B and A3) filtration binding assay was performed. Radioligand binding competition assay was done in duplicates in the wells of a 96-well plate (Master Block, Greiner, 786201) containing binding buffer, receptor membrane extracts, a fixed concentration of tracer and test compound at increasing concentrations. In order to eliminate effect of buffer components, binding buffer was the same for all four receptors and contained: 50 mM Tris-HCl pH 7.4, 5 mM MgCl2, 1 mM EDTA, 150 mM NaCl, 0.1% Na-azide, and 5 U/ml adenosine-deaminase. Nonspecific binding was determined by co-incubation with 200-fold excess of cold competitor. In all radioligand binding experiments, the samples were incubated in a final volume of 0.1 ml for 60 minutes at 25° C. and then filtered over Unifilter plates (Perkin Elmer) pre-treated for 2 hours to limit tracer non-specific binding. Filters were washed five times with 0.5 ml of ice-cold washing buffer (50 mM Tris-HCl pH 7.4, 5 mM MgCl2, 1 mM EDTA) and 50 μl of Microscint 20 (Perkin Elmer) were added to each filter. The plates are incubated 15 min at room temperature on an orbital shaker and then counted with a TopCount™ for 1 min/well.
For A2B, the assay was carried with [^3H]-DPCPX and membranes prepared from HEK293 cells transfected with human A2B receptor (Euroscreen FAST-003B).

A further experiment addresses human A2A receptor (Homo sapiens (Human), UniProt P29274). Nature of the experiment: Radioligand binding competition assay, [3H]-NECA, membranes from HEK293 cells transfected with human A2A receptor. Particulars: radioligand binding. The method, then:
as §2
For A2A receptor the assay was performed with [^3H]-NECA and membranes from HEK293 cells transfected with human A2A receptor (Euroscreen FAST-002B).

Experiment [3] addresses T1, human A2B receptor. Nature of the experiment: cAMP assay (b), HEK293 cells expressing recombinant human A2B receptor. Format: cell-based. The conditions noted are these: reference agonist at EC80, read-out: cAMP pIC50 (converted). The method, then: as §1
Dose response curves were performed in parallel with the reference compounds. 12 μl of cells were mixed with 6 μl of the test compound at increasing concentrations and then incubated 10 min. Thereafter 6 μl of the reference agonist was added at a final concentration corresponding to the historical EC80. The plates were then incubated for 30 min at room temperature. After addition of the lysis buffer and 1 hour incubation, cAMP concentrations were estimated, according to the manufacturer specification, with the HTRF kit.

In the next experiment the target is human A1 receptor (Homo sapiens (Human), UniProt P30542). In words: Radioligand binding competition assay, [3H]-DPCPX, membranes from CHO-K1 cells transfected with human A1 receptor. The method, then:
as §2
For A1 receptor the assay was performed with [^3H]-DPCPX and membranes from CHO-K1 cells transfected with human A1 receptor (Euroscreen FAST-00B).

Setting [4] is: read-out: cAMP pIC50 (converted).

T1 sequence (P29275 whole entry): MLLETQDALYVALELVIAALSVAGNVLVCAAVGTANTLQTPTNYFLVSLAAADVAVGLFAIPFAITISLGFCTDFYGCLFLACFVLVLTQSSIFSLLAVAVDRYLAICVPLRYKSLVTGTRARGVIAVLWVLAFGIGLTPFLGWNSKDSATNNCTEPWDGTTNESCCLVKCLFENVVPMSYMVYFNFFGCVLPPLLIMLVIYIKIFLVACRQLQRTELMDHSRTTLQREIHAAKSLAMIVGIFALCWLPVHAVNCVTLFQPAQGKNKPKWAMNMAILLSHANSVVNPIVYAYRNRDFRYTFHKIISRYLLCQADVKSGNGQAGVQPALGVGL
Sequence of A2B receptors endogenously expressed in HEK293 cells (P29275 whole entry): as above
Sequence of human A2A receptor (P29274 whole entry): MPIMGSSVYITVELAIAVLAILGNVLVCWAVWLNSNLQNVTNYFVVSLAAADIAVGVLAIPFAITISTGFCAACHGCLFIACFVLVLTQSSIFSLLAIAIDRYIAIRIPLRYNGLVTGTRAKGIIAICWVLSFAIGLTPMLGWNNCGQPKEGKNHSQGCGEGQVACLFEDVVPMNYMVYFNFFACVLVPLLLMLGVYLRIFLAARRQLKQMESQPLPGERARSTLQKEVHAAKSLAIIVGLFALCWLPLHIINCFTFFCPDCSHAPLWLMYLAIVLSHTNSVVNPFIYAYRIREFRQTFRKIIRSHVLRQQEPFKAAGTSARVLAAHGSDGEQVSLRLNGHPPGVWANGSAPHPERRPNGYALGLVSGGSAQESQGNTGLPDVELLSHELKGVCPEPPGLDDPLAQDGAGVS
Sequence of human A1 receptor (P30542 whole entry): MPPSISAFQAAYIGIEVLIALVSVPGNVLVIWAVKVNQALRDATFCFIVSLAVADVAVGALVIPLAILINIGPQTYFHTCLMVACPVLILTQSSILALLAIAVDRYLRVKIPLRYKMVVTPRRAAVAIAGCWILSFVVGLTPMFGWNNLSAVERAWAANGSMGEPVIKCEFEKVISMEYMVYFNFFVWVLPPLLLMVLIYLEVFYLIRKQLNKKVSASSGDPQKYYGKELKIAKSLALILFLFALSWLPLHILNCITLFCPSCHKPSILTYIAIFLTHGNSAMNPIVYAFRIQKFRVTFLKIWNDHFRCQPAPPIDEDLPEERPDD

Take `Fc1cnccc1-c1nnc(Nc2nccs2)nc1-c1cccnc1` [Example 3, N-(6-(3-fluoropyridin-4-yl)-5-(pyridin-3-yl)-1,2,4-triazin-3-yl)thiazol-2-amine]: the IC50 is 2 µM in experiment [1], 2 µM in experiment [1] (setting [4]) and 1.25 µM on human A2B receptor [2]. The “Human A2B Receptor pKi” value on human A2B receptor [2] is 5.95. Moreover, the “Human A2A Receptor pKi” value on human A2A receptor is reported as less than 4.70.

Take `Cc1nsc(Nc2nnc(-c3ccncc3F)c(-c3cccnc3)n2)n1` [Example 5, N-(6-(3-fluoropyridin-4-yl)-5-(pyridin-3-yl)-1,2,4-triazin-3-yl)-3-methyl-1,2,4-thiadiazol-5-amine]: on human A2B receptor [2], the “Human A2B Receptor pKi” value was 5.38 and the IC50 was 4.66 µM. Besides, on human A2A receptor, the “Human A2A Receptor pKi” value is less than 4.70.

`Cc1nnc(Nc2nnc(-c3ccncc3F)c(-c3cccnc3)n2)s1` [Example 6, N-(6-(3-fluoropyridin-4-yl)-5-(pyridin-3-yl)-1,2,4-triazin-3-yl)-5-methyl-1,3,4-thiadiazol-2-amine]: the IC50 in experiment [1] is 3.98 µM; in experiment [1] (setting [4]), 3.98 µM; at human A2B receptor [2], 4.77 µM. Moreover, the “Human A2B Receptor pKi” value at human A2B receptor [2] is given as 5.37. Also, at human A2A receptor, the “Human A2A Receptor pKi” value is less than 4.70.

`CNC(=O)Nc1nnc(-c2ccncc2F)c(-c2cccnc2)n1` [Example 7, 1-(6-(3-fluoropyridin-4-yl)-5-(pyridin-3-yl)-1,2,4-triazin-3-yl)-3-methylurea]: the results for the IC50 (in experiment [1]; in experiment [1] (setting [4]); at human A2B receptor [2]) were 6.92 µM, 6.92 µM and 6.32 µM, respectively. At human A2B receptor [2], the “Human A2B Receptor pKi” value is 5.25. In addition, at human A2A receptor, the “Human A2A Receptor pKi” value is less than 4.70.

Turning to `Fc1ccccc1-c1nc(Nc2nc(Cl)cs2)nnc1-c1ccnc(C(F)(F)F)c1` [Example 10, 4-chloro-N-(5-(2-fluorophenyl)-6-(2-(trifluoromethyl)pyridin-4-yl)-1,2,4-triazin-3-yl)thiazol-2-amine], on human A2B receptor [2], the “Human A2B Receptor pKi” value was 6.02 and the IC50 came out at 1.07 µM. Also, the “Human A2A Receptor pKi” value at human A2A receptor is less than 4.70.

As to `Fc1cccc(Nc2nnc(-c3ccncc3F)c(-c3ccccc3F)n2)c1` [Example 12, 5-(2-fluorophenyl)-N-(3-fluorophenyl)-6-(3-fluoropyridin-4-yl)-1,2,4-triazin-3-amine], at human A2B receptor [2], the “Human A2B Receptor pKi” value turned out to be 6.42 and the IC50 is 0.42 µM. Also, at human A2A receptor, the “Human A2A Receptor pKi” value is 4.49 and the IC50 was determined as 32.6 µM.

Regarding `Cc1nsc(Nc2nnc(-c3ccncc3F)c(-c3ccccc3F)n2)n1` [Example 13, N-(5-(2-fluorophenyl)-6-(3-fluoropyridin-4-yl)-1,2,4-triazin-3-yl)-3-methyl-1,2,4-thiadiazol-5-amine], at human A2B receptor [2], the “Human A2B Receptor pKi” value is listed as 5.98 and the IC50 worked out at 1.17 µM. Besides, on human A2A receptor, the “Human A2A Receptor pKi” value is less than 4.70.

For the molecule `Cc1cnc(-c2nc(Nc3cccc(F)c3)nnc2-c2ccncc2F)o1` [Example 17, N-(3-fluorophenyl)-6-(3-fluoropyridin-4-yl)-5-(5-methyloxazol-2-yl)-1,2,4-triazin-3-amine], on human A2B receptor [2], the “Human A2B Receptor pKi” value came to 7.17. The “Human A2A Receptor pKi” value on human A2A receptor worked out at 5.8. Moreover, on human A2B receptor [3], the IC50 is 0.324 µM.

Turning to `CCc1n[nH]c(Nc2nnc(-c3ccncc3F)c(-c3ccccc3F)n2)n1` [Example 18, N-(3-ethyl-1H-1,2,4-triazol-5-yl)-5-(2-fluorophenyl)-6-(3-fluoro-4-pyridyl)-1,2,4-triazin-3-amine], the “Human A1 Receptor pKi” value on human A1 receptor stood at 5.00. Also, the “Human A2B Receptor pKi” value on human A2B receptor [2] is 6.68.

Take `Cc1ccc(Nc2nnc(-c3ccncc3F)c(-c3ccccc3F)n2)cn1` [Example 21, 5-(2-fluorophenyl)-6-(3-fluoro-4-pyridyl)-N-(6-methyl-3-pyridyl)-1,2,4-triazin-3-amine]: on human A2B receptor [2], the “Human A2B Receptor pKi” value was 7.81. Further, the “Human A2A Receptor pKi” value on human A2A receptor is on record as 6. Besides, the IC50 at human A2B receptor [3] was 0.0661 µM.

For the molecule `OCc1ccc(Nc2nnc(-c3ccncc3F)c(-c3ccccc3F)n2)cn1` [Example 22, [5-[[5-(2-fluorophenyl)-6-(3-fluoro-4-pyridyl)-1,2,4-triazin-3-yl]amino]-2-pyridyl]methanol], at human A2B receptor [2], the “Human A2B Receptor pKi” value was found to be 7.95. For the same molecule, the “Human A2A Receptor pKi” value on human A2A receptor amounted to 4.7. The IC50 on human A2B receptor [3] was 0.0295 µM.

Take `COc1ccc(Nc2nnc(-c3ccncc3F)c(-c3ccccc3F)n2)cn1` [Example 23, 5-(2-fluorophenyl)-6-(3-fluoro-4-pyridyl)-N-(6-methoxy-3-pyridyl)-1,2,4-triazin-3-amine]: the “Human A2B Receptor pKi” value on human A2B receptor [2] is recorded as 7.43. In addition, the “Human A2A Receptor pKi” value at human A2A receptor is given as 6.57. The IC50 on human A2B receptor [3] is 0.105 µM.

On to `Fc1cnccc1-c1nnc(Nc2ccc(C(F)(F)F)nc2)nc1-c1ccccc1F` [Example 24, 5-(2-fluorophenyl)-6-(3-fluoro-4-pyridyl)-N-[6-(trifluoromethyl)-3-pyridyl]-1,2,4-triazin-3-amine], for which the “Human A1 Receptor pKi” value on human A1 receptor is 5.58. For the same molecule, the “Human A2B Receptor pKi” value at human A2B receptor [2] turned out to be 7.33. The IC50 at human A2B receptor [3] is 0.107 µM.

For `COc1ccc(NC(=O)Nc2nnc(-c3ccncc3F)c(-c3ccccc3F)n2)cc1` [Example 29, 1-[5-(2-fluorophenyl)-6-(3-fluoro-4-pyridyl)-1,2,4-triazin-3-yl]-3-(4-methoxyphenyl)urea], at human A2B receptor [2], the “Human A2B Receptor pKi” value is 6.94.

In the case of `O=C(Nc1nnc(-c2ccncc2F)c(-c2ccccc2F)n1)NC1CC1` [Example 35, 1-cyclopropyl-3-[5-(2-fluorophenyl)-6-(3-fluoro-4-pyridyl)-1,2,4-triazin-3-yl]urea], the “Human A2B Receptor pKi” value at human A2B receptor [2] turned out to be 6.55.

Take `Fc1cnccc1-c1nnc(Nc2ccc(OCC(F)F)nc2)nc1-c1ccccc1F` [Example 36, N-[6-(2,2-difluoroethoxy)pyridin-3-yl]-5-(2-fluorophenyl)-6-(3-fluoropyridin-4-yl)-1,2,4-triazin-3-amine]: at human A2B receptor [2], the “Human A2B Receptor pKi” value is given as 7.42. At human A2A receptor, the “Human A2A Receptor pKi” value came out at 6.56.

With `OCc1ccc(Nc2nnc(-c3ccncc3F)c(-c3ccccc3F)n2)cc1F` [Example 37, (2-fluoro-4-{[5-(2-fluorophenyl)-6-(3-fluoropyridin-4-yl)-1,2,4-triazin-3-yl]amino}phenyl)methanol], the “Human A2B Receptor pKi” value at human A2B receptor [2] worked out at 7.84. For the same molecule, the “Human A2A Receptor pKi” value on human A2A receptor is given as 6.1.

Turning to `CC(O)c1ccc(Nc2nnc(-c3ccncc3F)c(-c3ccccc3F)n2)cn1` (centres unmarked) [Example 40, 1-(5-{[5-(2-fluorophenyl)-6-(3-fluoropyridin-4-yl)-1,2,4-triazin-3-yl]amino}pyridin-2-yl)ethan-1-ol], on human A2B receptor [2], the “Human A2B Receptor pKi” value was found to be 7.89. The “Human A2A Receptor pKi” value at human A2A receptor was 6.25.

For the molecule `Fc1cnccc1-c1nnc(Nc2ccc(C3CC3)nc2)nc1-c1ccccc1F` [Example 44, N-(6-cyclopropylpyridin-3-yl)-5-(2-fluorophenyl)-6-(3-fluoropyridin-4-yl)-1,2,4-triazin-3-amine], the “Human A2B Receptor pKi” value at human A2B receptor [2] worked out at 7.58. For the same molecule, the “Human A2A Receptor pKi” value at human A2A receptor amounted to 6.00.

Regarding `CC(C)(C)c1n[nH]c(Nc2nnc(-c3ccncc3F)c(-c3ccccc3F)n2)n1` [Example 46, N-(3-tert-butyl-1H-1,2,4-triazol-5-yl)-5-(2-fluorophenyl)-6-(3-fluoropyridin-4-yl)-1,2,4-triazin-3-amine], the “Human A2B Receptor pKi” value at human A2B receptor [2] came out at 7.01.
